Measured values: article PMC6480424, “Hydrophobic Amines and Their Guanidine Analogues Modulate Activation and Desensitization of ASIC3” (International Journal of Molecular Sciences, 2019)

Tests used:
Assay type in all cases: cell-based
[1] = molecular target: T1, ASIC3 (acid-sensing ion channel 3) (Rattus norvegicus, UniProt O35240); experiment: whole-cell patch clamp, peak current inhibition at pH […]
T1 construct: homomeric rat ASIC3 expressed in CHO cells
T1 sequence (O35240 1-533): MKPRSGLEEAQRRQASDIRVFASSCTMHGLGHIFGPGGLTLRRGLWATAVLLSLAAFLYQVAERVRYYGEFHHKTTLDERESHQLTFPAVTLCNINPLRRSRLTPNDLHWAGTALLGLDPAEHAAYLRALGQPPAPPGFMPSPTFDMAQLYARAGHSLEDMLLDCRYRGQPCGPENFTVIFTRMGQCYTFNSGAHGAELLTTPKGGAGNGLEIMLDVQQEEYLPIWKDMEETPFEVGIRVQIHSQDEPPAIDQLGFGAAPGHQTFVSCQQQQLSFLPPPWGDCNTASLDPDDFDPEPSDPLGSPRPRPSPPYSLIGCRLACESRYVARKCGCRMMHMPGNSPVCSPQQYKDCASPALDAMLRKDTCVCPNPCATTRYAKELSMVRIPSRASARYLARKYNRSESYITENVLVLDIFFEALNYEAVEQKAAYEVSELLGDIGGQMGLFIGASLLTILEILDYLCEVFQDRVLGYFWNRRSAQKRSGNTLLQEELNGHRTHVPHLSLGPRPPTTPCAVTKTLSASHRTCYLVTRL

[2] = molecular target: T1, ASIC3 (acid-sensing ion channel 3); experiment: whole-cell patch clamp, peak inhibition and sustained potentiation, on/tail currents
[3] = molecular target: T1, ASIC3 (acid-sensing ion channel 3); experiment: whole-cell patch clamp, sustained current potentiation by […] at pH […]; details: read-out: % potentiation at 0.5 mM
[4] = molecular target: T1, ASIC3 (acid-sensing ion channel 3); experiment: whole-cell patch clamp, sustained current inhibition by […] at pH […]; details: read-out: % inhibition at 0.5 mM
[5] = molecular target: T1, ASIC3 (acid-sensing ion channel 3); experiment: whole-cell patch clamp at […], acidic shift of activation
[6] = molecular target: T1, ASIC3 (acid-sensing ion channel 3); experiment: whole-cell patch clamp, sustained current inhibition at pH […]

## N=C(N)NCCC1(c2ccccc2)CCCCC1 [IEM-2195]
[1]
  IC50: 21 ± 15 µM

## Nc1c2ccccc2nc2ccccc12 [9AA, 9-aminoacridine]
[2]
  whole-cell patch clamp, peak inhibition and sustained potentiation, on/tail curr: 9-Aminoacridine and IEM-2044, which inhibit peak and potentiate the sustained component of the response

## NC1c2ccccc2-c2ccccc21 [IEM-2117]
[3]
  activation at 500 µM: 498 ± 196%

## N=C(N)NC12CC3CC(CC(C3)C1)C2 [IEM-2151]
[4]
  inhibition at 500 µM: 29 ± 4%

## NCCC1(c2ccccc2)CCCCC1 [IEM-2044]
[2]
  whole-cell patch clamp, peak inhibition and sustained potentiation, on/tail curr: 9-Aminoacridine and IEM-2044, which inhibit peak and potentiate the sustained component of the response

## CN(C)CCC=C1c2ccccc2CCc2ccccc21 [amitriptyline]
[5]
  whole-cell patch clamp at 500 μM, acidic shift of activation: IEM-2044 and amitriptyline have opposite effects on different channels, inducing an alkaline shift of activation on ASIC1a

## CC12CC3CC(C)(C1)CC(NC(=N)N)(C3)C2 [IEM-2163]
[6]
  IC50: 117 ± 5.6 µM
